Experimental data: patent US12582638B2, “Pharmaceutical composition for treating cancer, containing mTOR-signaling inhibitor as active ingredient” (KOREA ADVANCED INSTITUTE OF SCIENCE AND TECHNOLOGY, priority 2020, dated 2026)

Tests used:
HCT116 = experiment: Viability assay for lomitapide-treated colorectal cells (CellTiter-Glo, 24); format: cell-based, human
Procedure: (§1) NCM460, HCT116, HT29, and SW480 cell lines were each seeded at a density of 10^4 cells/well into 96-well plates and incubated 37° C. for 24 hours before treatment with various concentrations (0, 1, 2, 5, and 10 μM) of lomitapide (Sigma Aldrich, Missouri, USA). After treatment of the cells with lomitapide at 37° C. for 24 in a 5% CO2 atmosphere, 100 μL of an assay reagent (CellTiter-Glo® Reagent) was added to each well. Then, luminescence was read using VICTOR X Multilabel Reader (PerkinElmer, Massachusetts, USA) and used to calculate cell viability (%). Results are depicted in FIGS. 2 to 4.

HT29 = experiment: as above; format: cell-based, human; settings: 0, 1, 2, 5, and 10 μM, dose-dependent
Procedure: as §1

SW480 = experiment: as above; format: cell-based, human; settings: 0, 1, 2, 5, and 10 μM, dose-dependent
Procedure: as §1

[1] = tested on: p-AKT, p-mTOR, p-S6K, p-S6; experiment: Cell signaling assay, western blot, HCT116; format: cell-based, human; settings: 0, 5, and 10 μM, dose-dependent, FIG. 6
Procedure: (§2) Cells treated with various concentrations (0, 5, and 10 μM) of lomitapide were lysed with RIPA buffer containing a protease-inhibitor cocktail. The whole-cell lysate was incubated on ice for 30 minutes. After centrifugation at 4° C. and 13,300×g for 15 minutes, the supernatant was collected. For use as controls, HCT116, SW480, HT29, MDA-MB-231, and MDA-MB-468 cells were treated with 1 μM of torin, known as an mTOR inhibitor.
(§3) For western blot analysis, the supernatant was loaded onto 10% SDS-PAGE gel. The separated proteins were blotted onto a PVDF membrane. Then, the blots were incubated with antibodies at 4° C. for 12 hours as follows (Table 2).
(§4) Then, the blots were washed with TBST (a mixture of tris-buffered saline (TBS) and Tween 20), incubated with horseradish peroxidase-conjugated secondary antibody (Cell signaling) at 37° C. for 1 hour, and washed, followed by detecting enhanced chemiluminescence (ECL; Amersham).

p-AMPK, LC3, p-ULK1 = experiment: Autophagy assay, western blot, HCT116; format: cell-based, human; settings: 0, 5, and 10 μM, FIG. 8
Procedure: HCT116 cells treated with various concentration (0, 5, and 10 μM) of lomitapide were analyzed for change in cell autophagy-related cell signaling pathway by western blotting. To this end, the supernatant obtained in Example 3 was loaded onto 10% SDS-PAGE gel. The proteins thus separated were blotted onto a PVDF membrane. Then, the blots were incubated with anti-p-AMPK, anti-LC3, anti-p-ULK1 antibodies (Cell Signaling Technology, Massachusetts, USA) at 4° C. for 12 hours. Afterward, the blots were washed with TBST (a mixture of tris-buffered saline (TBS) and Tween 20), incubated with horseradish peroxidase-conjugated secondary antibody (Cell signaling) at 37° C. for 1 hour, and washed, followed by detecting enhanced chemiluminescence (ECL; Amersham).

p-S6K, p-S6, LC3 [2] = experiment: Cell signaling assay, western blot, MDA-MB-468; format: cell-based, human; settings: 0, 5, and 10 μM, FIG. 7d
Procedure: as §2, §3, §4

[3] = tested on: immunocytes (CD4+, CD4+/CD44+, CD8+, CD8+/IFNη, Foxp3, NK, and NK/IFNγ); experiment: Immunocyte analysis in MC38 homograft model; format: in vivo, mouse; settings: lomitapide alone
Procedure: For mouse homograft tumor model, experiments were conducted using female C57B6/N mice (wild-type, 6 weeks old) with MC38 colorectal cancer and B16F10 melanoma cell lines. MC38 colorectal cancer and B16F10 melanoma cell lines were each subcutaneously injected at a dose of 2×10^5 cells. Lomitapide used in the two models was formulated with 45% saline, 40% PEG300, 5% Tween-80, and 10% DMSO.
From 10 days after the DMC38 colorectal cancer cells injection, lomitapide was intraperitoneally injected five times at a dose of 20 mg/kg, and anti-PD-1 mAb (clone RMP1-14, BioXCell, West Lebanon, NH, USA) or rat IgG2a iso-type control (clone 2A3, BioXCell, BE0089) in PBS was administered at a dose of 10 mg/kg at days 1, 4, 7, and 10 (FIGS. 18a and 18b).
In addition, MC38 colorectal cancer cells were analyzed for immunocytes (CD4+, CD4+/CD44+, CD8+, CD8+/IFNη, Foxp3, NK, and NK/IFNγ).

p-S6K, p-S6, LC3 [4] = experiment: Cell signaling assay, western blot, MDA-MB-231; format: cell-based, human; settings: 0, 5, and 10 μM, FIG. 7c
Procedure: as §2, §3, §4

[5] = tested on: colorectal cancer patient-derived organoids; experiment: Viability assay for organoids derived from colorectal cancer patients (imaging based); format: cell-based, human; settings: two colorectal cancer patient-derived organoids; 72 hours; FIG. 20
Procedure: Two-type colorectal cancer patient-derived organoids (organoid from males at 01-46 of age and organoid from females at 02-74 of age) were treated with lomitapide and assayed for viability as follows.
Organoids derived from colorectal cancer patients were cultured for 5-7 days on 48-well plates (SPL, cat 32048).
The organoids were separated from the plates by pipetting with 200 μL of Dulbecco's phosphate-buffered saline (DPBS; Welgene LB001-02) and transferred to new tubes.
For staining, the separated organoids and Hoechst (Thermo, #H-1399) were added at a ratio of 1:2,000 to a culture medium and incubated for 30 minutes at 37° C. in a 5% CO2 incubator. […]
Following the dispense, the number, state, and area of organoids were measured through DAPI signals with the aid of the high-contents imaging-based screening device Cytation 5 (Biotek).
Subsequently, organoid areas were monitored three times every 24 hours for 72 hours without changing the culture medium.
The effectiveness of the drug was calculated by applying the raw data derived from Cytation 5 to the following formulas. […]
Each organoid stained with Hoechst was measured for area (μm^2) by using Cytation 5, and areas of the all organoids in each well were summed.
The difference between the organoid area after 72 hours of drug treatment and the organoid area at the first 0 hour was calculated. […]

## O=C(NC1CCN(CCCCC2(C(=O)NCC(F)(F)F)c3ccccc3-c3ccccc32)CC1)c1ccccc1-c1ccc(C(F)(F)F)cc1 [lomitapide, N-(2,2,2-trifluoroethyl)-9-[4-[4-[[[4′-(trifluoromethyl)[1,1′-biphenyl]2-yl]carbonyl]amino]-1-piperidinyl]butyl]-9H-fluoren-9-carboxamide]
HCT116; HCT116, 0, 1, 2, 5, and 10 μM, dose-dependent
  cell viability: reduced the viability
HCT116; HCT116 vs normal human colonic epithelial cells (NCM460), FIG. 2
  cell viability of cancer cells compared to normal cells: decreased cell viability
HT29
  cell viability: reduced the viability
SW480
  cell viability: reduced the viability
[1]
  phosphorylation of target proteins levels (p-AKT, p-mTOR, p-S6K, p-S6): decreased phosphorylation
p-AMPK, LC3, p-ULK1
  conversion from LC3I into LC3II: significantly increased induction of conversion from LC3I into LC3II
p-AMPK, LC3, p-ULK1; dose-dependent
  phosphorylation level of AMPK: remarkably increased
p-S6K, p-S6, LC3 [2]
  conversion from LC3I into LC3II: increased induction of conversion from LC3I into LC3II
  phosphorylation levels of target proteins (p-S6K and p-S6): remarkably decreased phosphorylation levels
[3]
  level of CD4+ immunocytes vs group treated with anti-PD-1 mAb alone: superior
  level of CD4+/CD44+ immunocytes vs group treated with anti-PD-1 mAb alone: similar
  level of CD8+ immunocytes vs group treated with anti-PD-1 mAb alone: similar
  level of CD8+/IFNη immunocytes vs group treated with anti-PD-1 mAb alone: similar
  level of Foxp3 immunocytes vs group treated with anti-PD-1 mAb alone: similar
  level of NK immunocytes vs group treated with anti-PD-1 mAb alone: superior
  level of NK/IFNγ immunocytes vs group treated with anti-PD-1 mAb alone: superior
p-S6K, p-S6, LC3 [4]
  conversion from LC3I into LC3II: increased induction of conversion from LC3I into LC3II
  phosphorylation levels of target proteins (p-S6K and p-S6): remarkably decreased phosphorylation levels
[5]
  organoid viability: decreased in viability with the increase of the dose
